Measured values taken from PubChem BioAssay AID1745844 (Carcinogenic Potency Database (CPDB), 2022).
Where “and” joins values, the source holds several entries; their conditions need not be identical. Identical values can stand only once. Calls of active or inactive are those of the source. How the calls were made is not given here.

Tested on: rodent lifetime carcinogenesis bioassay, tumor incidence TD50
Test: chronic cancer bioassays in animals – CPDB, compiled studies (AID 1745844)

CC/C(=C(/CC)c1ccc(O)cc1)c1ccc(O)cc1
TD50 (mouse, strain (C57BL/6 x BALB/c)F1, females, in feed, site: cervix, lesion: squamous-cell carcinoma, dosed 148 weeks, study length 161 weeks): 1.98 mg/kg/day | carcinogen call (mouse, strain (C57BL/6 x BALB/c)F1, females, in feed, site: mammary gland, lesion: adenocarcinoma, type B, dosed 148 weeks, study length 161 weeks): positive | TD50 (mouse, strain (C57BL/6 x BALB/c)F1, females, in feed, site: pituitary gland, lesion: adenocarcinoma, dosed 148 weeks, study length 161 weeks): 2.01 mg/kg/day | TD50 (mouse, strain (C57BL/6 x BALB/c)F1, females, in feed, site: pituitary gland, lesion: adenoma, dosed 148 weeks, study length 161 weeks): 0.0387 mg/kg/day | TD50 (mouse, strain (C57BL/6 x BALB/c)F1, males, in feed, site: pituitary gland, lesion: adenoma, dosed 150 weeks, study length 169 weeks): 0.0722 mg/kg/day | TD50 (mouse, strain (C57BL/6 x BALB/c)F1, males, in feed, site: testis, lesion: interstitial-cell tumor, dosed 150 weeks, study length 169 weeks): 0.0408 mg/kg/day | TD50 (mouse, strain BALB/cStCrlfC3Hf/Nctr, females, in feed, site: cervix, lesion: adenoacanthoma, dosed 132 weeks, study length 133 weeks): 1.28 mg/kg/day | TD50 (mouse, strain BALB/cStCrlfC3Hf/Nctr, females, in feed, site: cervix, lesion: squamous-cell carcinoma, dosed 132 weeks, study length 133 weeks): 0.311 mg/kg/day | TD50 (mouse, strain BALB/cStCrlfC3Hf/Nctr, females, in feed, site: mammary gland, lesion: adenoacanthoma, dosed 132 weeks, study length 133 weeks): 1.88 mg/kg/day | TD50 (mouse, strain BALB/cStCrlfC3Hf/Nctr, females, in feed, site: mammary gland, lesion: adenocarcinoma, type B, dosed 132 weeks, study length 133 weeks): 0.476 mg/kg/day | TD50 (mouse, strain BALB/cStCrlfC3Hf/Nctr, females, in feed, site: ovary, lesion: granulosa-cell tumor, dosed 132 weeks, study length 133 weeks): 0.166 mg/kg/day | TD50 (mouse, strain BALB/cStCrlfC3Hf/Nctr, females, in feed, site: pituitary gland, lesion: adenocarcinoma, dosed 132 weeks, study length 133 weeks): 5.1 mg/kg/day | TD50 (mouse, strain BALB/cStCrlfC3Hf/Nctr, females, in feed, site: pituitary gland, lesion: adenoma, dosed 132 weeks, study length 133 weeks): 0.2 mg/kg/day | TD50 (mouse, strain BALB/cStCrlfC3Hf/Nctr, females, in feed, site: uterus, lesion: adenocarcinoma, dosed 132 weeks, study length 133 weeks): 5.32 mg/kg/day | TD50 (mouse, strain BALB/cStCrlfC3Hf/Nctr, females, in feed, site: vagina, lesion: squamous-cell carcinoma, dosed 132 weeks, study length 133 weeks): 1.31 mg/kg/day | TD50 (mouse, strain BALB/cStCrlfC3Hf/Nctr, males, in feed, site: pituitary gland, lesion: adenoma, dosed 121 weeks, study length 126 weeks): 0.171 mg/kg/day | TD50 (mouse, strain BALB/cStCrlfC3Hf/Nctr, males, in feed, site: testis, lesion: interstitial-cell tumor, dosed 121 weeks, study length 126 weeks): 0.0215 mg/kg/day | TD50 (mouse, strain C3H (MTV+), females, in feed, site: mammary gland, lesion: adenocarcinoma, dosed 104 weeks, study length 104 weeks): 0.026 mg/kg/day | TD50 (mouse, strain C3H (MTV+), females, in feed, site: mammary gland, lesion: carcinoma, dosed 85 weeks, study length 85 weeks): 0.0292 mg/kg/day | TD50 (mouse, strain C3H/AnCum, males, in feed, site: mammary gland, lesion: carcinoma, dosed 104 weeks, study length 104 weeks): 0.0359 mg/kg/day and 0.0421 mg/kg/day and 0.0789 mg/kg/day | TD50 (mouse, strain C3H/HeJ (MTV+), females, in feed, site: mammary gland, lesion: adenocarcinoma, dosed 52 weeks, study length 52 weeks): 0.0825 mg/kg/day | TD50 (mouse, strain C3H/HeJ (MTV+), females, in feed, site: mammary gland, lesion: adenocarcinoma, dosed 104 weeks, study length 104 weeks): 14.2 mg/kg/day | TD50 (mouse, strain C3H/HeJ (MTV+), females, in feed, site: ovary, lesion: tubular adenoma, dosed 78 weeks, study length 78 weeks): 0.0222 mg/kg/day | TD50 (mouse, strain C3H/HeN-MTV-/Nctr (MTV-), females, in feed, site: all sites, lesion: mesothelioma, dosed 112 weeks, study length 112 weeks): 0.928 mg/kg/day | TD50 (mouse, strain C3H/HeN-MTV-/Nctr (MTV-), females, in feed, site: all sites, lesion: mesothelioma, dosed 123 weeks, study length 123 weeks): 0.487 mg/kg/day | TD50 (mouse, strain C3H/HeN-MTV-/Nctr (MTV-), females, in feed, site: all sites, lesion: mesothelioma, dosed 125 weeks, study length 125 weeks): 0.52 mg/kg/day | TD50 (mouse, strain C3H/HeN-MTV-/Nctr (MTV-), females, in feed, site: cervix uteri, lesion: adenocarcinoma, dosed 112 weeks, study length 112 weeks): 2.47 mg/kg/day | TD50 (mouse, strain C3H/HeN-MTV-/Nctr (MTV-), females, in feed, site: cervix uteri, lesion: adenocarcinoma, dosed 123 weeks, study length 123 weeks): 1.66 mg/kg/day | TD50 (mouse, strain C3H/HeN-MTV-/Nctr (MTV-), females, in feed, site: cervix uteri, lesion: adenocarcinoma, dosed 125 weeks, study length 125 weeks): 1.17 mg/kg/day | TD50 (mouse, strain C3H/HeN-MTV-/Nctr (MTV-), females, in feed, site: mammary gland, lesion: adenocarcinoma, type A, dosed 107 weeks, study length 107 weeks): 2.63 mg/kg/day | TD50 (mouse, strain C3H/HeN-MTV-/Nctr (MTV-), females, in feed, site: mammary gland, lesion: adenocarcinoma, type A, dosed 123 weeks, study length 123 weeks): 4.39 mg/kg/day | TD50 (mouse, strain C3H/HeN-MTV-/Nctr (MTV-), females, in feed, site: mammary gland, lesion: adenocarcinoma, type A, dosed 125 weeks, study length 125 weeks): 2.1 mg/kg/day | TD50 (mouse, strain C3H/HeN-MTV-/Nctr (MTV-), females, in feed, site: mammary gland, lesion: adenocarcinoma, type B, dosed 107 weeks, study length 107 weeks): 0.0302 mg/kg/day | TD50 (mouse, strain C3H/HeN-MTV-/Nctr (MTV-), females, in feed, site: mammary gland, lesion: adenocarcinoma, type B, dosed 112 weeks, study length 112 weeks): 0.0434 mg/kg/day | TD50 (mouse, strain C3H/HeN-MTV-/Nctr (MTV-), females, in feed, site: mammary gland, lesion: adenocarcinoma, type B, dosed 123 weeks, study length 123 weeks): 0.118 mg/kg/day | TD50 (mouse, strain C3H/HeN-MTV-/Nctr (MTV-), females, in feed, site: mammary gland, lesion: adenocarcinoma, type B, dosed 125 weeks, study length 125 weeks): 0.0956 mg/kg/day | TD50 (mouse, strain C3H/HeN-MTV-/Nctr (MTV-), females, in feed, site: mammary gland, lesion: several types, types named in the paper, dosed 107 weeks, study length 107 weeks): 0.0247 mg/kg/day | TD50 (mouse, strain C3H/HeN-MTV-/Nctr (MTV-), females, in feed, site: mammary gland, lesion: several types, types named in the paper, dosed 112 weeks, study length 112 weeks): 0.0427 mg/kg/day | TD50 (mouse, strain C3H/HeN-MTV-/Nctr (MTV-), females, in feed, site: mammary gland, lesion: several types, types named in the paper, dosed 123 weeks, study length 123 weeks): 0.115 mg/kg/day | TD50 (mouse, strain C3H/HeN-MTV-/Nctr (MTV-), females, in feed, site: mammary gland, lesion: several types, types named in the paper, dosed 125 weeks, study length 125 weeks): 0.0872 mg/kg/day | TD50 (mouse, strain C3H/HeN-MTV-/Nctr (MTV-), females, in feed, site: uterus, lesion: endometrial adenocarcinoma, dosed 112 weeks, study length 112 weeks): 2.05 mg/kg/day | TD50 (mouse, strain C3H/HeN-MTV-/Nctr (MTV-), females, in feed, site: uterus, lesion: endometrial adenocarcinoma, dosed 123 weeks, study length 123 weeks): 1.87 mg/kg/day | TD50 (mouse, strain C3H/HeN-MTV-/Nctr (MTV-), females, in feed, site: uterus, lesion: endometrial adenocarcinoma, dosed 125 weeks, study length 125 weeks): 1.71 mg/kg/day | TD50 (mouse, strain C3HeB/FeJ, females, in feed, site: mammary gland, lesion: adenocarcinoma, dosed 78 weeks, study length 78 weeks): 0.295 mg/kg/day | TD50 (mouse, strain C3HeB/FeJ, females, in feed, site: ovary, lesion: tubular adenoma, dosed 78 weeks, study length 78 weeks): 0.329 mg/kg/day | TD50 (mouse, strain C3HeB/FeJ, females, in feed, site: ovary, lesion: tubular adenoma, dosed 104 weeks, study length 104 weeks): 0.597 mg/kg/day | TD50 (mouse, strain C57BL/6, females, in feed, site: pituitary gland, lesion: adenoma, dosed 118 weeks, study length 143 weeks): 0.0259 mg/kg/day | carcinogen call (mouse, strain C57BL/6, females, in feed, site: thyroid gland, lesion: follicular-cell tumor, dosed 118 weeks, study length 143 weeks): positive | TD50 (mouse, strain C57BL/6, males, in feed, site: pituitary gland, lesion: adenocarcinoma, dosed 125 weeks, study length 153 weeks): 1.42 mg/kg/day | TD50 (mouse, strain C57BL/6, males, in feed, site: pituitary gland, lesion: adenoma, dosed 125 weeks, study length 153 weeks): 0.0176 mg/kg/day | TD50 (mouse, strain C57BL/6, males, in feed, site: testis, lesion: interstitial-cell tumor, dosed 125 weeks, study length 153 weeks): 0.257 mg/kg/day | TD50 (mouse, strain C57BL/6, males, in feed, site: thyroid gland, lesion: follicular-cell tumor, dosed 125 weeks, study length 153 weeks): 0.05 mg/kg/day | TD50 (mouse, strain Monohybrid cross offspring of B6CF1 (C57BL/6 x BALB/c), females, in feed, site: cervix, lesion: squamous-cell carcinoma, dosed 144 weeks, study length 153 weeks): 1.03 mg/kg/day | TD50 (mouse, strain Monohybrid cross offspring of B6CF1 (C57BL/6 x BALB/c), females, in feed, site: ovary, lesion: granulosa-cell tumor, dosed 144 weeks, study length 153 weeks): 1.74 mg/kg/day | TD50 (mouse, strain Monohybrid cross offspring of B6CF1 (C57BL/6 x BALB/c), females, in feed, site: pituitary gland, lesion: adenocarcinoma, dosed 144 weeks, study length 153 weeks): 17 mg/kg/day | TD50 (mouse, strain Monohybrid cross offspring of B6CF1 (C57BL/6 x BALB/c), females, in feed, site: pituitary gland, lesion: adenoma, dosed 144 weeks, study length 153 weeks): 0.0456 mg/kg/day | TD50 (mouse, strain Monohybrid cross offspring of B6CF1 (C57BL/6 x BALB/c), females, in feed, site: thyroid gland, lesion: follicular-cell adenoma, dosed 144 weeks, study length 153 weeks): 0.186 mg/kg/day | TD50 (mouse, strain Monohybrid cross offspring of B6CF1 (C57BL/6 x BALB/c), females, in feed, site: uterus, lesion: mesothelioma, dosed 144 weeks, study length 153 weeks): 1.72 mg/kg/day | TD50 (mouse, strain Monohybrid cross offspring of B6CF1 (C57BL/6 x BALB/c), males, in feed, site: pituitary gland, lesion: adenocarcinoma, dosed 147 weeks, study length 158 weeks): 4.36 mg/kg/day | TD50 (mouse, strain Monohybrid cross offspring of B6CF1 (C57BL/6 x BALB/c), males, in feed, site: pituitary gland, lesion: adenoma, dosed 147 weeks, study length 158 weeks): 0.0794 mg/kg/day | TD50 (mouse, strain Monohybrid cross offspring of B6CF1 (C57BL/6 x BALB/c), males, in feed, site: testis, lesion: interstitial-cell tumor, dosed 147 weeks, study length 158 weeks): 0.0661 mg/kg/day | TD50 (rat, strain Charles River CD (Sprague-Dawley), females, in feed, site: liver, lesion: hepatoma, dosed 91 weeks, study length 104 weeks): 0.13 mg/kg/day (inactive) | TD50 (rat, strain Charles River CD (Sprague-Dawley), males, in feed, site: adrenal gland, lesion: cortical adenoma, dosed 66 weeks, study length 66 weeks): 0.39 mg/kg/day | TD50 (rat, strain Charles River CD (Sprague-Dawley), males, in feed, site: liver, lesion: carcinoma, dosed 66 weeks, study length 66 weeks): 1.21 mg/kg/day | TD50 (rat, strain Charles River CD (Sprague-Dawley), males, in feed, site: liver, lesion: nodular hyperplasia, dosed 66 weeks, study length 66 weeks): 0.39 mg/kg/day | carcinogen call (rat, strain Charles River CD (Sprague-Dawley), males, in feed, site: liver, lesion: one or several types, types not named, dosed 91 weeks, study length 104 weeks): negative (inactive) | TD50 (rat, strain Charles River CD (Sprague-Dawley), males, in feed, site: pituitary gland, lesion: chromophobe adenoma, dosed 66 weeks, study length 66 weeks): 0.114 mg/kg/day | TD50 (rat, strain Sprague-Dawley, females, by gavage, site: liver, lesion: hepatocellular adenoma, dosed 52 weeks, study length 52 weeks): 16.3 mg/kg/day | TD50 (rat, strain Sprague-Dawley, females, by gavage, site: liver, lesion: hepatocellular carcinoma, dosed 52 weeks, study length 52 weeks): 4.8 mg/kg/day | TD50 (rat, strain Sprague-Dawley, females, by gavage, site: pituitary gland, lesion: adenoma, dosed 52 weeks, study length 52 weeks): 7.68 mg/kg/day
